Values after ≈ are worked out from the molar mass of the structure shown.
Experiments:
Type in all cases: functional
Staphylococcus aureus [1] = assay: Antimicrobial activity against methicillin-susceptible Staphylococcus aureus assessed as susceptible isolate by broth microdilution method
Staphylococcus [2] = assay: Antimicrobial activity against methicillin-susceptible coagulase-negative Staphylococcus by broth microdilution method
Streptococcus pneumoniae [3] = assay: Antimicrobial activity against penicillin-intermediate Streptococcus pneumoniae assessed as intermediate isolate by broth microdilution method
Streptococcus pneumoniae [4] = assay: Antimicrobial activity against […] assessed as susceptible isolate by broth microdilution method
Streptococcus pneumoniae [5] = assay: Antimicrobial activity against penicillin-susceptible Streptococcus pneumoniae by broth microdilution method
Staphylococcus aureus [6] = assay: Antimicrobial activity against methicillin-susceptible Staphylococcus aureus by broth microdilution method
Staphylococcus [7] = assay: Antimicrobial activity against methicillin-susceptible coagulase-negative Staphylococcus assessed as susceptible isolate by broth microdilution method
Streptococcus pneumoniae [8] = assay: Antimicrobial activity against penicillin-resistant Streptococcus pneumoniae assessed as resistant isolate by broth microdilution method
Streptococcus pneumoniae [9] = assay: Antimicrobial activity against penicillin-resistant Streptococcus pneumoniae by broth microdilution method
Enterobacter cloacae [10] = assay: Antimicrobial activity against Enterobacter cloacae with nonderepressed AmpC beta-lactamsae assessed as intermediate isolate by broth microdilution method
Escherichia coli [11] = assay: Antimicrobial activity against Non-ESBL Escherichia coli assessed as resistant isolate by broth microdilution method
Proteus mirabilis [12] = assay: Antimicrobial activity against Non-ESBL Proteus mirabilis assessed as susceptible isolate by broth microdilution method
Citrobacter [13] = assay: Antimicrobial activity against Citrobacter with nonderepressed AmpC beta-lactamsae by broth microdilution method
Klebsiella pneumoniae [14] = assay: Antimicrobial activity against Non-ESBL Klebsiella pneumoniae assessed as intermediate isolate by broth microdilution method
Serratia marcescens [15] = assay: Antimicrobial activity against Ceftazidime non-susceptible Serratia marcescens assessed as susceptible isolate by broth microdilution method
Serratia marcescens [16] = assay: Antimicrobial activity against Ceftazidime non-susceptible Serratia marcescens by broth microdilution method
Serratia marcescens [17] = assay: Antimicrobial activity against Ceftazidime susceptible Serratia marcescens assessed as resistant isolate by broth microdilution method
Enterobacteriaceae [18] = assay: Antimicrobial activity against Ceftazidime non-susceptible Enterobacteriaceae assessed as intermediate isolate by broth microdilution method
Serratia marcescens [19] = assay: Antimicrobial activity against Ceftazidime non-susceptible Serratia marcescens assessed as intermediate isolate by broth microdilution method
Klebsiella pneumoniae [20] = assay: Antimicrobial activity against ESBL producing Klebsiella pneumoniae assessed as susceptible isolate by broth microdilution method
Citrobacter [21] = assay: Antimicrobial activity against Citrobacter with nonderepressed AmpC beta-lactamsae assessed as susceptible isolate by broth microdilution method
Enterobacter cloacae [22] = assay: Antimicrobial activity against Enterobacter cloacae with nonderepressed AmpC beta-lactamsae by broth microdilution method
Escherichia coli [23] = assay: Antimicrobial activity against Non-ESBL Escherichia coli by broth microdilution method
Klebsiella pneumoniae [24] = assay: Antimicrobial activity against Non-ESBL Klebsiella pneumoniae by broth microdilution method
Enterobacter cloacae [25] = assay: Antimicrobial activity against Enterobacter cloacae with nonderepressed AmpC beta-lactamsae assessed as susceptible isolate by broth microdilution method
Enterobacteriaceae [26] = assay: Antimicrobial activity against ceftazidime-susceptible Enterobacteriaceae assessed as susceptible isolate by broth microdilution method
Enterobacteriaceae [27] = assay: Antimicrobial activity against Ceftazidime non-susceptible Enterobacteriaceae by broth microdilution method
Escherichia coli [28] = assay: Antimicrobial activity against ESBL producing Escherichia coli assessed as susceptible isolate by broth microdilution method
Enterobacter cloacae [29] = assay: Antimicrobial activity against Enterobacter cloacae with derepressed AmpC beta-lactamsae by broth microdilution method
Enterobacteriaceae [30] = assay: Antimicrobial activity against ceftazidime-susceptible Enterobacteriaceae by broth microdilution method
Citrobacter [31] = assay: Antimicrobial activity against Citrobacter with derepressed AmpC beta-lactamsae assessed as susceptible isolate by broth microdilution method
Enterobacter cloacae [32] = assay: Antimicrobial activity against Enterobacter cloacae with derepressed AmpC beta-lactamsae assessed as intermediate isolate by broth microdilution method
Escherichia coli [33] = assay: Antimicrobial activity against Non-ESBL Escherichia coli assessed as intermediate isolate by broth microdilution method
Klebsiella pneumoniae [34] = assay: Antimicrobial activity against Non-ESBL Klebsiella pneumoniae assessed as susceptible isolate by broth microdilution method
Klebsiella pneumoniae [35] = assay: Antimicrobial activity against ESBL producing Klebsiella pneumoniae by broth microdilution method
Enterobacter cloacae [36] = assay: Antimicrobial activity against Enterobacter cloacae with derepressed AmpC beta-lactamsae assessed as susceptible isolate by broth microdilution method
Serratia marcescens [37] = assay: Antimicrobial activity against Ceftazidime susceptible Serratia marcescens assessed as susceptible isolate by broth microdilution method
Escherichia coli [38] = assay: Antimicrobial activity against Non-ESBL Escherichia coli assessed as susceptible isolate by broth microdilution method
Proteus mirabilis [39] = assay: Antimicrobial activity against ESBL producing Proteus mirabilis assessed as susceptible isolate by broth microdilution method
Proteus mirabilis [40] = assay: Antimicrobial activity against Non-ESBL Proteus mirabilis by broth microdilution method
Escherichia coli [41] = assay: Antimicrobial activity against ESBL producing Escherichia coli assessed as intermediate isolate by broth microdilution method
Citrobacter [42] = assay: Antimicrobial activity against Citrobacter with derepressed AmpC beta-lactamsae by broth microdilution method
Serratia marcescens [43] = assay: Antimicrobial activity against Ceftazidime susceptible Serratia marcescens by broth microdilution method
Enterobacteriaceae [44] = assay: Antimicrobial activity against Ceftazidime non-susceptible Enterobacteriaceae assessed as resistant isolate by broth microdilution method
Klebsiella pneumoniae [45] = assay: Antimicrobial activity against ESBL producing Klebsiella pneumoniae assessed as intermediate isolate by broth microdilution method
Proteus mirabilis [46] = assay: Antimicrobial activity against ESBL producing Proteus mirabilis by broth microdilution method
Klebsiella pneumoniae [47] = assay: Antimicrobial activity against ESBL producing Klebsiella pneumoniae assessed as resistant isolate by broth microdilution method
Serratia marcescens [48] = assay: Antimicrobial activity against Ceftazidime susceptible Serratia marcescens assessed as intermediate isolate by broth microdilution method
Enterobacter cloacae [49] = assay: Antimicrobial activity against Enterobacter cloacae with derepressed AmpC beta-lactamsae assessed as resistant isolate by broth microdilution method
Enterobacteriaceae [50] = assay: Antimicrobial activity against Ceftazidime non-susceptible Enterobacteriaceae assessed as susceptible isolate by broth microdilution method
Proteus mirabilis [51] = assay: Antimicrobial activity against ESBL producing Proteus mirabilis assessed as intermediate isolate by broth microdilution method
Proteus mirabilis [52] = assay: Antimicrobial activity against Non-ESBL Proteus mirabilis assessed as intermediate isolate by broth microdilution method
Escherichia coli [53] = assay: Antimicrobial activity against ESBL producing Escherichia coli by broth microdilution method
Citrobacter [54] = assay: Antimicrobial activity against Citrobacter with derepressed AmpC beta-lactamsae assessed as resistant isolate by broth microdilution method
Serratia marcescens [55] = assay: Antimicrobial activity against Ceftazidime non-susceptible Serratia marcescens assessed as resistant isolate by broth microdilution method
Enterobacteriaceae [56] = assay: Antimicrobial activity against ceftazidime-susceptible Enterobacteriaceae assessed as intermediate isolate by broth microdilution method
Enterobacteriaceae [57] = assay: Antimicrobial activity against ceftazidime-susceptible Enterobacteriaceae assessed as resistant isolate by broth microdilution method
Escherichia coli [58] = assay: Antimicrobial activity against ESBL producing Escherichia coli assessed as resistant isolate by broth microdilution method
Citrobacter [59] = assay: Antimicrobial activity against Citrobacter with nonderepressed AmpC beta-lactamsae assessed as intermediate isolate by broth microdilution method
Enterobacter cloacae [60] = assay: Antimicrobial activity against Enterobacter cloacae with nonderepressed AmpC beta-lactamsae assessed as resistant isolate by broth microdilution method
[61] = Streptococcus pneumoniae, read-out: MIC90

## C[C@@H](O)[C@H]1C(=O)N2C(C(=O)O)=C(S[C@@H]3CN[C@H](C(=O)Nc4cccc(C(=O)O)c4)C3)[C@H](C)[C@H]12
Staphylococcus aureus [1]
  Activity: 99.4%
Staphylococcus [2]
  MIC90: 0.5 µg/mL (≈ 1.05 µM)
Staphylococcus [2]; Staphylococcus, read-out: MIC90
  MIC90: 0.25 µg/mL (≈ 0.526 µM)
Streptococcus pneumoniae [3]
  Activity: 94.5%
Streptococcus pneumoniae [4]
  Activity: 100%
Streptococcus pneumoniae [5]
  MIC90: 0.03 µg/mL (≈ 0.0631 µM)
Streptococcus pneumoniae [5]; [61]
  MIC90: 0.03 µg/mL (≈ 0.0631 µM)
Staphylococcus aureus [6]
  MIC90: 0.5 µg/mL (≈ 1.05 µM)
Staphylococcus aureus [6]; Staphylococcus aureus, read-out: MIC90
  MIC90: 0.25 µg/mL (≈ 0.526 µM)
Staphylococcus [7]
  Activity: 99.4%
Streptococcus pneumoniae [8]
  Activity: 39.6%
Streptococcus pneumoniae [9]
  MIC90: 2 µg/mL (≈ 4.21 µM)
Streptococcus pneumoniae [9]; [61]
  MIC90: 2 µg/mL (≈ 4.21 µM)

## CO/N=C(\C(=O)N[C@@H]1C(=O)N2C(C(=O)O)=C(CSc3nc(=O)c(O)nn3C)CS[C@H]12)c1csc(N)n1 [CEFTRIAXONE]
Enterobacter cloacae [10]
  Activity: 4.7%
Escherichia coli [11]
  Activity: 0.2%
Proteus mirabilis [12]
  Activity: 99.7%
Citrobacter [13]
  MIC50: 0.12 µg/mL (≈ 0.216 µM)
  MIC90: 0.5 µg/mL (≈ 0.902 µM)
Klebsiella pneumoniae [14]
  Activity: 0.3%
Serratia marcescens [15]
  Activity: 10%
Serratia marcescens [16]
  MIC50: 64 µg/mL (≈ 115 µM)
  MIC90: > 64 µg/mL
Serratia marcescens [17]
  Activity: 0.6%
Enterobacteriaceae [18]
  Activity: 26.9%
Serratia marcescens [19]
  Activity: 30%
Klebsiella pneumoniae [20]
  Activity: 9.1%
Citrobacter [21]
  Activity: 97.8%
Enterobacter cloacae [22]
  MIC50: 0.25 µg/mL (≈ 0.451 µM)
  MIC90: 4 µg/mL (≈ 7.21 µM)
Escherichia coli [23]
  MIC50: 0.03 µg/mL (≈ 0.0541 µM)
  MIC90: 0.06 µg/mL (≈ 0.108 µM)
Klebsiella pneumoniae [24]
  MIC50: 0.03 µg/mL (≈ 0.0541 µM)
  MIC90: 0.12 µg/mL (≈ 0.216 µM)
Enterobacter cloacae [25]
  Activity: 91.9%
Enterobacteriaceae [26]
  Activity: 99.3%
Enterobacteriaceae [27]
  MIC50: > 64 µg/mL
  MIC90: > 64 µg/mL
Escherichia coli [28]
  Activity: 20%
Enterobacter cloacae [29]
  MIC50: > 64 µg/mL
  MIC90: > 64 µg/mL
Enterobacteriaceae [30]
  MIC50: 0.03 µg/mL (≈ 0.0541 µM)
  MIC90: 0.25 µg/mL (≈ 0.451 µM)
Citrobacter [31]
  Activity: 1.8%
Enterobacter cloacae [32]
  Activity: 6.8%
Escherichia coli [33]
  Activity: 1.1%
Klebsiella pneumoniae [34]
  Activity: 99.3%
Klebsiella pneumoniae [35]
  MIC50: 64 µg/mL (≈ 115 µM)
  MIC90: > 64 µg/mL
Enterobacter cloacae [36]
  Activity: 0%
Serratia marcescens [37]
  Activity: 98.1%
Escherichia coli [38]
  Activity: 98.7%
Proteus mirabilis [39]
  Activity: 100%
Proteus mirabilis [40]
  MIC: ≤ 0.015 µg/mL
  MIC50: ≤ 0.015 µg/mL
  MIC90: ≤ 0.015 µg/mL
Escherichia coli [41]
  Activity: 13.3%
Citrobacter [42]
  MIC50: 64 µg/mL (≈ 115 µM)
  MIC90: > 64 µg/mL
Serratia marcescens [43]
  MIC50: 0.25 µg/mL (≈ 0.451 µM)
  MIC90: 1 µg/mL (≈ 1.8 µM)
Enterobacteriaceae [44]
  Activity: 65.4%
Klebsiella pneumoniae [45]
  Activity: 8.2%
Proteus mirabilis [46]
  MIC: 0.06 µg/mL (≈ 0.108 µM)
Klebsiella pneumoniae [47]
  Activity: 72.7%
Serratia marcescens [48]
  Activity: 1.4%
Enterobacter cloacae [49]
  Activity: 93.2%
Enterobacteriaceae [50]
  Activity: 7.6%
Proteus mirabilis [51]
  Activity: 0%
Proteus mirabilis [52]
  Activity: 0.3%
Escherichia coli [53]
  MIC50: > 64 µg/mL
  MIC90: > 64 µg/mL
Citrobacter [54]
  Activity: 54.5%
Serratia marcescens [55]
  Activity: 60%
Enterobacteriaceae [56]
  Activity: 0.4%
Enterobacteriaceae [57]
  Activity: 0.3%
Escherichia coli [58]
  Activity: 66.7%
Citrobacter [59]
  Activity: 1.1%
Enterobacter cloacae [60]
  Activity: 3.5%
